Data on 65 compounds can be found in ChEMBL document CHEMBL3507680, “University of Dundee, Gates Library screen for HepG2 cell viability”.

The nature of the series: Human HepG2 cell viability assay in 384 well format. The format is toxicity, cell-based. Details: dose 125 nL, time 70.5 hour; cytotoxicity at 70.5 h: concentration not given beside the values. Particulars: HepG2 cells, read-out: Inhibition.
For the compound `CC(C)(C)CNC[C@H]1Cn2c(-c3ccccc3)cnc2CO1`, the cytotoxicity at 70.5 h is -3.54%. The figure for `COCC(=O)N[C@H](C)c1onc(-c2ccccc2)c1C(=O)O` is -4.32%.

In the case of `COc1ccc(-c2noc([C@@H](C)NC(=O)CC(C)C)c2C(=O)O)cc1`, the cytotoxicity at 70.5 h was -8.52%. On to `Cn1cc(CNC[C@H]2Cn3ccnc3CO2)c2ccccc21`, for which the cytotoxicity at 70.5 h was -5.61%. The figure for `CNC(=O)C(C)(C)N1CCC[C@H]1C(=O)NC(C)(C)C` is 14.3%; for `CN1CCC(N2CCN3C(=O)NC[C@H]3C2)CC1` it is -3.25%; for `O=C(NC[C@H]1OC[C@@H](NCc2ccc(F)cc2)[C@@H]1O)c1ccncc1` it is 0.548%. As for `OCCc1cc(CC2(NCc3ccncc3)COC2)no1`, the cytotoxicity at 70.5 h is -4.15%.

As to `O=C(NC[C@H]1OC[C@@H](NC2CCCCC2)[C@@H]1O)Nc1ccccc1`, the cytotoxicity at 70.5 h came to 15.8%. As for `COc1ccc2nc3n(c2c1)[C@@H](CNC(=O)c1cncnc1)COC3`, the cytotoxicity at 70.5 h was -2.36%. To `Cc1ccc2c(c1)nc1n2[C@@H](CNC(=O)c2ccccn2)COC1` belongs 11.4%; to `Cc1nc(C)c(CN2CCOC[C@H](Oc3ccccc3)C2)s1`, -10.6%; to `COc1ccc(CN2CCOC[C@H](OCc3ccccc3)C2)cc1`, -8.76%.

In the case of `COc1ccc(CN2CCOC[C@H](OCCC(C)C)C2)cc1`, the cytotoxicity at 70.5 h was -4.37%. To `Cc1cccc2c1nc1n2[C@@H](CNC(=O)c2cncnc2)COC1` belongs -3.15%; to `O=C(C1CCOCC1)N1CCN2C(=O)N(Cc3ccc(F)cc3)C[C@H]2C1`, -3.96%. In the case of `c1ccc(O[C@H]2COCCN(Cc3c[nH]c4ccccc34)C2)cc1`, the cytotoxicity at 70.5 h was -6.76%.

Consider `COc1ccc(O[C@H]2COCCN(C(=O)c3ccno3)C2)cc1`, for which the cytotoxicity at 70.5 h is -2.74%. The figure for `CC(C)(C)CN1CCOC[C@H]1c1nc(-c2cccc(F)c2)c[nH]1` is -6.97%. For the compound `CN1C[C@@H](F)[C@@H](OCc2nc3ccc(C#N)cc3[nH]2)C1`, the cytotoxicity at 70.5 h was -2.32%. As to `CC(C)c1noc([C@@H]2Cc3[nH]cnc3CN2C(=O)Nc2ccccc2)n1`, the cytotoxicity at 70.5 h was found to be 9.88%. Turning to `O=C1CO[C@H]2CN(S(=O)(=O)c3ccccc3)C[C@H]2N1c1ccccc1`, the cytotoxicity at 70.5 h was -8.37%. For `O=C1CO[C@H]2CN(Cc3cccnc3)C[C@H]2N1`, the cytotoxicity at 70.5 h was -1.16%. With `Cc1noc([C@@H]2C[C@H](NC(=O)NC(C)C)CN2C)n1`, the cytotoxicity at 70.5 h was -0.832%.

Regarding `CC(=O)N1CCC(NC2(Cc3cc(CN(C)C)on3)COC2)CC1`, the cytotoxicity at 70.5 h came out at 11.9%. The figure for `Cc1ccc(CNC2(Cc3cc(-c4ccc(F)cc4)on3)COC2)o1` is -2.05%; for `Cc1ccccc1C(=O)Nc1ccc([C@H]2OCC(=O)N(C)[C@@H]2CO)cc1` it is -0.197%; for `COc1ccccc1CN1C[C@@H](F)[C@@H](OCc2nc3ncccc3[nH]2)C1` it is -0.841%. The figure for `Cc1cccc2c1nc1n2[C@@H](CNC(=O)NC(C)C)COC1` is -0.416%. As for `Fc1ccc2c(c1)nc1n2[C@@H](CNCc2nccs2)COC1`, the cytotoxicity at 70.5 h is -7.36%. To `COc1ccc2nc(C[C@@H]3C[C@@H](C(C)C)[C@H](CN(C)C)C=C3C)[nH]c2n1` belongs -3.85%; to `CC(C)(C)C(=O)N1C[C@@H](F)[C@@H](OCc2nc3ncccc3[nH]2)C1`, -2.41%; to `N#Cc1cccc(CN2C[C@@H](F)[C@@H](OCc3nc4cnccc4[nH]3)C2)c1`, 11.4%. To `COc1cccc(CN2C[C@@H](F)[C@@H](OCc3nc4cnccc4[nH]3)C2)c1` belongs 2.35%. The figure for `Fc1ccc2[nH]c(CO[C@H]3CN(CC4CC4)C[C@H]3F)nc2c1` is 1.66%. `O=C(NC[C@H]1OC[C@@H](NC2CCC(F)(F)CC2)[C@@H]1O)Nc1ccccc1`: the cytotoxicity at 70.5 h stood at 0.362%. As to `O=C(NC[C@H]1OC[C@@H](NC2CCOCC2)[C@@H]1O)C1CCCC1`, the cytotoxicity at 70.5 h was -6.06%. To `c1ccc(O[C@H]2COCCN(Cc3cccc4c3OCO4)C2)cc1` belongs -1.37%; to `Cc1cc(C(=O)N2CCOC[C@H](Oc3cccnc3)C2)c(C(F)(F)F)o1`, 9.27%.

In the case of `Cc1ccc(S(=O)(=O)NC[C@H]2OC[C@@H](NCc3cccs3)[C@@H]2O)cc1`, the cytotoxicity at 70.5 h was 7.42%.

Take `O=C(NC1CCCC1)O[C@H]1COCCN(c2nc3ccccc3o2)C1`: the cytotoxicity at 70.5 h is -3.6%. To `CC(C)NC(=O)c1nnn(-c2cccc(C(F)(F)F)c2)c1N` belongs -4.84%; to `COC(=O)c1cc(OCC2CCC2)cc(C(=O)N[C@@H]2CNCC[C@H]2O)c1`, 19.4%.

Regarding `COCCN(C)C[C@@H]1CN(C(=O)c2cccc(C(F)(F)F)c2)C[C@@H]1CO`, the cytotoxicity at 70.5 h was -9.39%. The figure for `Cc1c[nH]c(CN(C)C(=O)C2CC(=O)N(Cc3ccncc3)C2)n1` (stereo not given) is 11.9%; for `Cc1cc(C)n(-c2cc(N3CCN(C(=O)C(C)(C)C)CC3)nc(C)n2)n1` it is 2.21%. To `CN(c1ccc(C(=O)NCCCN2CCOCC2)c(Cl)c1)S(C)(=O)=O` belongs -8.19%. For `CCN(c1ccc(C(=O)N2CCCC(C)C2)cc1)S(=O)(=O)CC` (stereo not given), the cytotoxicity at 70.5 h was -4.35%. As for `CCC(C(=O)NCc1ccncc1)N(c1cccc(C)c1)S(C)(=O)=O` (stereo not given), the cytotoxicity at 70.5 h is -9.28%. The figure for `Cc1cccc(C(=O)Nc2ccc(OC3CCN(C)CC3)cc2)c1` is 19.2%; for `COCCCC1CCCN(C(=O)CCc2cc(O)no2)C1` (stereo not given) it is -1.74%; for `CN1CCC(CCNC(=O)c2ccc(N(C)S(C)(=O)=O)cc2Cl)CC1` it is -7.69%.

Take `Cc1nc(C2CCCN(C(=O)CO)C2)cc(N2CCOCC2)n1` (stereo not given): the cytotoxicity at 70.5 h was -4.97%. In the case of `N#Cc1ccccc1CN1C[C@@H]2CC[C@H](C1)N(CC1CC1)C2=O`, the cytotoxicity at 70.5 h was -7.57%. To `COc1ccc(OCc2cc(C(=O)N3CCN[C@H](C)C3)n[nH]2)c(Cl)c1` belongs -9.79%.

Consider `CN(C)S(=O)(=O)N1CCN(c2ccnc(N3CCCC3)n2)CC1`, for which the cytotoxicity at 70.5 h is -12.4%. `Cc1ccc([C@@H]2CN(S(=O)(=O)N(C)C)C[C@H]2N(C)C)cc1`: the cytotoxicity at 70.5 h was -5.83%.

Turning to `NC(=O)C1CCN(C(=O)CCn2ccc3cc(Br)ccc32)CC1`, the cytotoxicity at 70.5 h was -1.61%.

Turning to `CCCS(=O)(=O)N1CCN(c2cc(-n3cnc(C)c3C)nc(C)n2)CC1`, the cytotoxicity at 70.5 h was -4.37%.

As to `CCOC(=O)N1CCN(C(=O)c2ccc3ccn(C)c3c2)CC1`, the cytotoxicity at 70.5 h was -8.79%. The figure for `C[C@@H](NC(=O)c1cccs1)c1onc(-c2cccnc2)c1C(=O)O` is 2.92%; for `CCNC(=O)[C@@H]1CCCN1[C@@H](C(=O)NC)c1ccccc1` it is -8.33%. The figure for `COCCOC[C@]1(CNCc2ccc(OC)cc2)C[C@@H](O)[C@@H](O)C1` is -7.9%; for `CNC(=O)[C@@H](c1ccccc1OC)N1CCC[C@H]1C(=O)NC(C)(C)C` it is -8.72%; for `COc1cccc(CNC[C@@]2(COc3cccnc3)C[C@@H](O)[C@@H](O)C2)c1` it is -3.95%.
